Experimental data published in patent US20240075004A1, “VERY-LONG-CHAIN POLYUNSATURATED FATTY ACIDS, ELOVANOID HYDROXYLATED DERIVATIVES, AND METHODS OF USE” (The Board of Supervisors of Louisiana State University and …, priority 2020, published 2024).

Tests used:
[1] = tested on: senescence, autophagy, AMD, ECM remodeling and apoptosis genes; experiment: RPE and retina gene expression (qPCR) after subretinal OAβ (1-42) injection; assay type: in vivo, C57BL/6J WT mice; conditions: OAβ subretinally administered in WT mice
Experimental: (§1) All animal experiments were performed according to ARVO Statement for the Use of Animals in Ophthalmic and Vision Research, and the protocol was approved by LSU Health New Orleans' Institutional Animal Care and Use Committee (IACUC). 6-month-old 5×FAD mice (stock number: 34848-JAX, The Jackson Laboratory, Bar Harbor, ME, USA), co-overexpress FAD mutant forms of human amyloid precursor protein (the Swedish mutation: K670N, M671L; the Florida mutation: I716V; and the London mutation: V7171) and presenilin 1 (PS1, encoded by Psen1: M146L, L286V) transgenes under transcriptional control of the neuron-specific mouse Thy1 promoter. 5×FAD mice were hemizygotes with respect to the transgenes and non-transgenic WT littermates. Genotyping was performed by PCR of tail DNA. All analyses were carried out blind with respect to the mice genotype. […]
For the in vivo experiments, eyeballs were enucleated and anterior segment containing the cornea, lens and iris removed and the retina separated from the rest of the eyecup (RPE/choroid). […] Quantitative PCR was performed in a CFX-384 Real-Time PCR system (Bio-Rad). The expression of target genes was normalized to the geometric mean of housekeeping genes and relative expression was calculated by the comparative threshold cycle method (ΔΔCT).

p16INK4a = p16INK4a western blots of RPE/Choroid after subretinal OAβ injection; assay type: in vivo, C57BL/6J WT mice; conditions: elevated by OAβ injection; subretinal co-injection 200 ng with 10 μM OAβ, topical drops 200 nM twice a day; day 7
Experimental: as §1, with “genotype. For the subretinal injection, 6-month-old C57BL/6J mice were anesthetized by an intraperitoneal injection of ketamine/xylazine, pupils dilated with 1.0% tropicamide (Akorn, IL, USA); and 0.5% Proparacaine Hydrochloride (Akorn) was applied for topical anesthesia.” for “genotype.”
Samples were lysed by RIPA buffer and protein determined by Bradford assay (Bio-Rad, Hercules, CA, USA). […] Densitometry data were statistically analyzed at 95% confidence level.

ARPE-19 cells = experiment: Protein abundance and apoptosis in ARPE-19 cells undergoing UOS; assay type: cell-based; conditions: RPE cells under UOS; sodium salt forms
Experimental: ELV-N32 or ELV-N34 indicates the sodium salt forms, and ELV-N34-Me or ELV-N32-Me indicates the methyl ester forms. ELVs induces the following effects in ARPE-19 cells undergoing UOS: (panel a) Concentration-dependent (100 and 250 nM) upregulation of SIRT1. The results are the averages of three independent experiments; (panel b) upregulation of Iduna abundance; (panel c) increased abundance of anti-apoptotic proteins Bcl-2 and Bcl-xL; (panel d) decreased abundance of pro-apoptotic proteins Bax, (panel e) Bid and (panel f) Bim. (panel g) Concentration-dependent (100 and 250 nM) upregulation of Prohibitin (type-1) by ELVs takes place. (panel h) Concentration-dependent (50, 100, 250, and 500 nM) reduction of UOS-induced apoptosis. Error bars, SEM; *p<0.05.

primary human RPE cells = experiment: Primary human RPE cells challenged with OAβ: SA-β-Gal staining and qPCR; assay type: cell-based; conditions: 10 μM OAβ; qPCR after 3 days, SA-β-Gal after 7 days
Experimental: All experiments with primary human RPE cells were approved by the Institutional Review Board of LSUHNO and conducted in accordance with NIH guidelines. Cells were collected from anonymous donors provided by eye banks. Briefly, globes of a person, without eye pathology were obtained from NDRI within 24 hours after death from head trauma. Globes were opened, and RPE cells harvested and cultured (1, 2) and grown in MEM medium supplemented with 10% FBS, 5% NCS, non-essential amino acids, Penicillin-Streptomycin (100 U/mL), human fibroblast growth factor 10 ng/ml and incubated at 37° C. with a constant supply of 5% CO2. Cells integrity was validated as in previous study (3). For oligomeric Aβ treatment, cells were seeded in the 6-well plates, 30.000 cells/cm2. After 2 days, sub-confluent cells were treated with 10 μM OAβ or with PBS (vehicle control).
Aβ (1-42) (HFIP-treated, ANASPEC Company, Fremont, CA, USA, Cat AS-64129) was resuspended by adding 1% NH4OH/Water and DMSO to obtain a concentration 500 μM and sonicated for 10 min. […]
Cells were visualized using SA-β-Gal staining kit (Cat 9860, Cell Signaling Technology, MA, USA). […] Pictures were taken under brightfield microscope (Nikon Eclipse TS100) 200× magnification after the development of blue color, and cells counted in 10 different random fields per well. […]

## CC/C=C\C[C@H](O)\C=C/C=C/C=C/[C@H](O)C/C=C\C/C=C\CCCCCCCCCCCCC(=O)O [ELV-N-32]
[1]
  OAβ-activated senescence program (p16INK4a, MMP1, p53, p21, p27, Il-6 gene expression, SASP secretome) followed by RPE and PRC demise: blunt these events and elicit protection to both cells
p16INK4a
  expression of the key senescence marker p16INK4a (western blots of RPE/Choroid): down regulated
ARPE-19 cells
  abundance of cell damaging proteins: decrease abundance
  abundance of pro-homeostatic proteins: enhance abundance
Primary human RPE cells
  OAβ-altered RPE cell morphology, SASP (SA-β-Gal staining) and expression of senescence, AMD, matrix metalloproteinase and autophagy-related genes: reverted these effects

## CC/C=C\C[C@H](O)\C=C/C=C/C=C/[C@H](O)C/C=C\C/C=C\CCCCCCCCCCCCCCC(=O)O [ELV-N-34]
[1]
  OAβ-activated senescence program (p16INK4a, MMP1, p53, p21, p27, Il-6 gene expression, SASP secretome) followed by RPE and PRC demise: blunt these events and elicit protection to both cells
p16INK4a
  expression of the key senescence marker p16INK4a (western blots of RPE/Choroid): down regulated
ARPE-19 cells
  abundance of cell damaging proteins: decrease abundance
  abundance of pro-homeostatic proteins: enhance abundance
Primary human RPE cells
  OAβ-altered RPE cell morphology, SASP (SA-β-Gal staining) and expression of senescence, AMD, matrix metalloproteinase and autophagy-related genes: reverted these effects
